Patent US8142782B2, “EGFR inhibitors promote axon regeneration” (Children's Medical Center Corporation, priority 2005, dated 2012)

Legend:
CNS neurons = CNS neurons overexpressing SOCS2; cited from earlier work
[1] = system: dorsal root ganglion (DRG) neurons; experiment: Neurite outgrowth assay of DRG neurons on myelin inhibitor substrates; format: cell-based
CGNs = experiment: Neurite outgrowth assay of P7-9 CGNs on control and myelin inhibitor substrates; format: cell-based; conditions: AG1288 1 μM, AG1478 10 nM, PD168393 10 nM; 20 hr; about 500 neurons per condition
Protocol: (§1) To confirm the involvement of EGFR kinase in myelin inhibition, we tested two well-characterized EGFR inhibitors with distinctive mechanisms of action, AG1478 and PD168393, and a non-receptor tyrosine kinase inhibitor, AG1288, in the outgrowth assay. P7-9 CGNs were plated on control and immobilized myclin substrate and grown in the presence of AG1288 (1 μM), AG1478 (10 nM) and PD168393 (10 nM) for 20 hr (8, 10). Cells were fixed in paraformaldehyde and stained with anti-tubulin antibody (Tuj1, Covance) to visualize and quantitate neurite length. […] Approximately 500 neurons were counted for each condition from at least 3 independent experiments. All AG1478 and PD168393 treatments on inhibitors were significant. In contrast, none of the treatments affected either the neurite outgrowth on a control poly-D-lysine (PDL) substrate or neuronal survival. Similarly, EGFR kinase inhibitors were able to block myelin neurite outgrowth inhibition in retinal explant cultures grown within a collagen matrix laden with myelin. P5-6 mouse retinas were dissected and cut into small explants on a tissue chopper. The resultant explants were cultured within a collagen matrix with and without myelin (10 μg/ml) in the presence or absence of PD168393 (10 nM) for 72 hrs. Explants were fixed and stained with anti-tubulin antibodies.

[2] = system: PC12 cell lines with reduced EGFR signaling; conditions: cited from earlier work
PC12 cells = conditions: cultured PC12 cells; cited from earlier work
EGFR = EGFR phosphorylation in serum-starved CGNs (immunoblot of neuronal lysates); format: cell-based; conditions: for effect on EGFR phosphorylation subsequent to Nogo-66 treatment: CGNs, Nogo-66-elicited trans-activation; for effect on direct EGFR activation by EGF: EGF stimulation; for induction of EGFR phosphorylation: serum-starved CGNs, Nogo-66 and OMgp at 5 nM
Text: To examine whether myelin inhibitors directly influence the activity of EGFR in myelin-responsive neurons, we treated serum-starved CGNs with recombinant soluble myelin inhibitors and assessed the EGFR receptor activity.
Previously, we developed a truncated form of NgR that has the ability to bind to ligands but not its signaling co-receptors (8-10, 12). When over-expressed, the truncated receptor can compete with endogenous NgR for coreceptor binding and thus block inhibitor-induced signaling pathways (8-10, 12). […] It is known that in addition to activation by its cognate ligands, EGFR phosphorylation can also result from “trans-activation” by other signaling pathways (22, 23). For example, angiotensin II acts through the angiotensin AT1 receptor, to promote growth of cardiomyocytes via trans-activation of the EGFR and activation of MAP kinase (23). […] We examined whether any of these mechanism(s) are involved in the NgR-dependent EGFR trans-activation by inhibiting specific signaling pathways pharmacologically. […]

[3] = system: neurons of the crushed right internal parietal (RIP) nerve; conditions: pond snail Lymnaea stagnalis; cited from earlier work
Retinal explants = experiment: Retinal explant neurite outgrowth in collagen gels with CSPGs; format: cell-based; conditions: CSPGs 200 ng/ml in collagen gels; PD168393 100 nM; three days
Protocol: In addition to myelin inhibitors, chondroitin sulfate proteoglycans (CSPGs) in the glial scar represent a major hurdle for regenerating axons. […] Retinal explants were grown in collagen gels with and without CPSGs (200 ng/ml, Chemicon) and PD168393 (100 nM) for three days, fixed and stained with anti-tubulin antibodies. […] In contrast, neither growth cone collapse nor repulsive responses induced by Sema3A were affected by EGFR inhibitors.

[4] = system: P5-6 mouse retinal explants; experiment: Retinal explant outgrowth in collagen matrix laden with myelin; format: cell-based; conditions: myelin 10 μg/ml in collagen matrix; PD168393 10 nM; 72 hrs; Student's t test P<0.0001
Protocol: as §1

[5] = system: lesioned optic nerve fibers; format: in vivo
Text: The finding that inhibiting neuronal EGFR activity could efficiently block the inhibitory activity of both myelin inhibitors and CSPGs prompted us to examine whether EGFR inhibitors introduced at a CNS lesion site could promote axon regeneration in a model of optic nerve crushing (28). All animal experiments were done in accordance with protocols approved by the institutional animal care and use committee at Schepens Eye Research Institute. Adult mouse optic nerves were exposed behind the eyeball and crushed. Immediately after injury in adult mice, Gelfoam soaked in a solution containing the EGFR inhibitor PD168393 or 0.1% DMSO (control) was placed against the crush site of the nerve and replaced every three days for the first six days of the study. Animals were sacrificed two weeks post injury followed by transcardial perfusion with 4% paraformaldehyde. Optic nerves were cryosectioned at 10 μm and stained with an anti-GAP43 antibody (Chemicon) to detect regenerating axons (28). Little regeneration was detected in DMSO-treated control mice. […] To test the possibility that the observed axon regrowth of retinal ganglion neurons (RGCs) after PD168393 treatment was a consequence of improved cell survival, we stained retinal sections with the anti-tubulin Tuj1 antibody, which stains RGCs in the retina, and counted surviving RGCs. […]

[6] = system: cerebellar granule cells (CGNs) on immobilized myelin substrate; experiment: Screen of about 400 small molecules in a neurite outgrowth assay of CGNs on immobilized myelin; format: cell-based; conditions: 5×10^4 CGNs per well on immobilized myelin, grown overnight; 10-fold dilutions centered on IC50; scored by two blind observers
Protocol: We screened approximately 400 well-characterized small molecules in a neurite outgrowth assay of cerebellar granule cells (CGNs) on immobilized myelin substrate. Myelin was immobilized on 96-well plates using published methods (8). Individual compounds from a signaling molecule targeted drug library (TOCRIS) were diluted by 10-fold dilutions centered on their IC50 values, in concentrations typically varying from low nanomolar to micromolar, and transferred to culture wells with 5×10^4 CGNs per well. Cells were grown overnight, fixed in paraformaldehyde, and stained with tubulin antibodies. Outgrowth was independently scored by two blind observers. Positively scored compounds were picked for further verifications. Each compound was evaluated at a 10^4 dilution range centered on its IC50 value to ensure effective concentrations for each drug tested. Several internal controls, including cAMP analogues, phosphodiesterase inhibitors, and a Rho-associated protein kinase inhibitor were identified in the screen, confirming previous findings and validating our approach.

N#C/C(=C\c1ccc(O)c(O)c1)C(=O)NCc1ccccc1 [AG490]
effect on neurite outgrowth promoted by SOCS2 overexpression (CNS neurons): outgrowth is blocked

COc1cc2ncnc(Nc3cccc(Cl)c3)c2cc1OC [AG1478]
promotion of neurite outgrowth from DRG neurons on whole myelin and individual myelin inhibitors (Nogo-66, MAG) [1]: effectively promoted neurite outgrowth | promotion of neurite outgrowth from CGNs on whole myelin and individual myelin inhibitors (Nogo-66, MAG) (CGNs): effectively promoted neurite outgrowth | cytotoxicity [2]: cytotoxic | effect on versican V1-induced neuronal differentiation (PC12 cells): significantly blocks differentiation

CC(=O)OCOC(=O)CN(CC(=O)OCOC(C)=O)c1ccccc1OCCOc1ccccc1N(CC(=O)OCOC(C)=O)CC(=O)OCOC(C)=O [BAPTA-AM]
effect on EGFR phosphorylation subsequent to Nogo-66 treatment (EGFR): significantly decreased EGFR phosphorylation | effect on direct EGFR activation by EGF (EGFR): neither EGTA nor BAPTA-AM had any effect

O=C(O)CN(CCOCCOCCN(CC(=O)O)CC(=O)O)CC(=O)O [EGTA]
effect on EGFR phosphorylation subsequent to Nogo-66 treatment (EGFR): significantly decreased EGFR phosphorylation | effect on direct EGFR activation by EGF (EGFR): neither EGTA nor BAPTA-AM had any effect

CNC(=O)[C@H](Cc1c[nH]c2ccccc12)NC(=O)[C@@H](CC(=O)NO)CC(C)C [GM6001]
effect on EGFR phosphorylation subsequent to Nogo-66 treatment (EGFR): had no effect

Cn1c2ccccc2c2c3c(c4c5ccccc5n(CCC#N)c4c21)CNC3=O [Go6976]
effect on EGFR phosphorylation subsequent to Nogo-66 treatment (EGFR): had no effect

COc1cc2ncnc(Nc3cccc(Br)c3)c2cc1OC [PD153035]
effect on EGF-promoted axonal regeneration [3]: counteracts the effect of EGF on axonal regeneration

C=CC(=O)Nc1ccc2ncnc(Nc3cccc(Br)c3)c2c1 [PD168393]
promotion of neurite outgrowth from DRG neurons on whole myelin and individual myelin inhibitors (Nogo-66, MAG) [1]: effectively promoted neurite outgrowth | promotion of neurite outgrowth from CGNs on whole myelin and individual myelin inhibitors (Nogo-66, MAG) (CGNs): effectively promoted neurite outgrowth | neurite length of retinal explants compared to CSPGs alone (Retinal explants): significantly increased neurite length | outgrowth of retinal explants in myelin cultures compared to myelin alone [4]: significantly promoted outgrowth of explants | increase in the number of regenerating axons compared to control mice ([5]; adult mice, measured 0.25 mm beyond the injury site, two weeks post injury, GAP43 staining, DMSO control): 9 fold | effect on RGC survival ([5]; mouse, in vivo): No detectable effect

CC(C)(C)n1nc(-c2ccc(Cl)cc2)c2c(N)ncnc21 [PP2]
effect on EGFR phosphorylation subsequent to Nogo-66 treatment (EGFR): had no effect

Nc1ncnc2c1cnn2-c1ccccc1 [PP3]
effect on neurite outgrowth promoted by SOCS2 overexpression (CNS neurons): outgrowth is blocked

N#C/C(=C\c1ccc(O)c(O)c1)C(N)=O [Tyrphostin A46]
ability to counter the effects of myelin inhibition on neurite outgrowth [6]: showed the greatest ability to counter the effects of myelin inhibition

N#C/C(=C\c1ccc(O)c(O)c1)C(N)=S [Tyrphostin A47]
ability to counter the effects of myelin inhibition on neurite outgrowth [6]: showed the greatest ability to counter the effects of myelin inhibition

C[C@@H](NC(=O)/C(C#N)=C/c1ccc(O)c(O)c1)c1ccccc1 [Tyrphostin B44(−)]
ability to counter the effects of myelin inhibition on neurite outgrowth [6]: showed the greatest ability to counter the effects of myelin inhibition

TAPI
effect on EGFR phosphorylation subsequent to Nogo-66 treatment (EGFR): had no effect

pertussis toxin
effect on EGFR phosphorylation subsequent to Nogo-66 treatment (EGFR): had no effect

B1: Semaphorin3A: chemorepellant (protein, UniProt Q14563 21-771, looked up)
Semaphorin-3A: NYQNGKNNVPRLKLSYKEMLESNNVITFNGLANSSSYHTFLLDEERSRLYVGAKDHIFSFDLVNIKDFQKIVWPVSYTRRDECKWAGKDILKECANFIKVLKAYNQTHLYACGTGAFHPICTYIEIGHHPEDNIFKLENSHFENGRGKSPYDPKLLTASLLIDGELYSGTAADFMGRDFAIFRTLGHHHPIRTEQHDSRWLNDPKFISAHLISESDNPEDDKVYFFFRENAIDGEHSGKATHARIGQICKNDFGGHRSLVNKWTTFLKARLICSVPGPNGIDTHFDELQDVFLMNFKDPKNPVVYGVFTTSSNIFKGSAVCMYSMSDVRRVFLGPYAHRDGPNYQWVPYQGRVPYPRPGTCPSKTFGGFDSTKDLPDDVITFARSHPAMYNPVFPMNNRPIVIKTDVNYQFTQIVVDRVDAEDGQYDVMFIGTDVGTVLKVVSIPKETWYDLEEVLLEEMTVFREPTAISAMELSTKQQQLYIGSTAGVAQLPLHRCDIYGKACAECCLARDPYCAWDGSACSRYFPTAKRRTRRQDIRNGDPLTHCSDLHHDNHHGHSPEERIIYGVENSSTFLECSPKSQRALVYWQFQRRNEERKEEIRVDDHIIRTDQGLLLRSLQQKDSGNYLCHAVEHGFIQTLLKVTLEVIDTEHLEELLHKDDDGDGSKTKEMSNSMTPSQKVWYRDFMQLINHPNLNTMDEFCEQVWKRDRKQRRQRPGHTPGNSNKWKHLQENKKGRNRRTHEFERAPRSV
induction of EGFR phosphorylation (EGFR): neither a control alkaline phosphatase (AP) protein nor the chemorepellant Semaphorin3A (Sema3A) induced detectable levels

B2: OMgp: recombinant soluble myelin inhibitor, oligodendrocyte myelin glycoprotein (protein, UniProt P23515 25-417, looked up)
Oligodendrocyte-myelin …: ICPLQCICTERHRHVDCSGRNLSTLPSGLQENIIHLNLSYNHFTDLHNQLTQYTNLRTLDISNNRLESLPAHLPRSLWNMSAANNNIKLLDKSDTAYQWNLKYLDVSKNMLEKVVLIKNTLRSLEVLNLSSNKLWTVPTNMPSKLHIVDLSNNSLTQILPGTLINLTNLTHLYLHNNKFTFIPDQSFDQLFQLQEITLYNNRWSCDHKQNITYLLKWMMETKAHVIGTPCSTQISSLKEHNMYPTPSGFTSSLFTVSGMQTVDTINSLSVVTQPKVTKIPKQYRTKETTFGATLSKDTTFTSTDKAFVPYPEDTSTETINSHEAAAATLTIHLQDGMVTNTSLTSSTKSSPTPMTLSITSGMPNNFSEMPQQSTTLNLWREETTTNVKTPLPS
induction of EGFR phosphorylation (EGFR): triggered EGFR phosphorylation as early as 1 min post-stimulation
